This note sets out measurements from US6444677B2, “5-membered heteroaryl substituted 1,4-dihydropyridine compounds as bradykinin antagonists” (Pfizer Inc., priority 1999, dated 2002).

Molecules are shown by their SMILES. Counter-ions that a name gives are not always drawn.

As usually defined, the melting point is the temperature of the solid-liquid transition.

With `COC(=O)C1=C(CCc2nccs2)NC(CC(=O)N2CCN(CCC3(C(N)=O)CCCC3)CC2)=C(C(=O)OC)C1c1c(Cl)cccc1Cl` (stereo not shown) (as salt: HCl) [Example 43, Dimethyl 2-[2-[4-[2-[1-(aminocarbonyl)cyclopentyl]ethyl]-1-piperazinyl]-2-oxoethyl]-4-(2,6-dichlorophenyl)-6-[2-(1,3-thiazol-2-yl)ethyl]-1,4-dihydro-3,5-pyridinedicarboxylate], the melting point was 158 to 163 °C (dec.).
Under `CCNCC1(C2CCN(C(=O)CC3=C(C(=O)OC)C(c4c(Cl)cccc4Cl)C(C(=O)OC)=C(CCc4nccs4)N3)CC2)CCCCC1` (stereo not shown) (as salt: HCl) [Example 45, Dimethyl 4-(2,6-dichlorophenyl)-2-[2-[4-[1-[(ethylamino)methyl]cyclohexyl]-1-piperidinyl]-2-oxoethyl]-6-[2-(1,3-thiazol-2-yl)ethyl]-1,4-dihydro-3,5-pyridinedicarboxylate] stands 162 to 163 °C (dec.); under `COC(=O)C1=C(CCc2nccs2)NC(CC(=O)N2CCN(CC(C)(C)CNS(C)(=O)=O)CC2)=C(C(=O)OC)C1c1c(Cl)cccc1Cl` (stereo not shown) [Example 13, Dimethyl 4-(2,6-dichlorophenyl)-2-[2-[4-[2,2-dimethyl-3-[(methylsulfonyl)amino]propyl]-1-piperazinyl]-2-oxoethyl]-6-[2-(1,3-thiazol-2-yl)ethyl]-1,4-dihydro-3,5-pyridinedicarboxylate], 132 to 136 °C; under `COC(=O)C1=C(CCc2nccs2)NC(CC(=O)N2CCN(CC(C)(C)C#N)CC2)=C(C(=O)OC)C1c1c(Cl)cccc1Cl` (stereo not shown) [Example 15, Dimethyl 2-[2-[4-(2-cyano-2-methylpropyl)-1-piperazinyl]-2-oxoethyl]-4-(2,6-dichlorophenyl)-6-[2-(1,3-thiazol-2-yl)ethyl]-1,4-dihydro-3,5-pyridinedicarboxylate], 120 to 122 °C.
In the case of `COC(=O)C1=C(CCc2nccs2)NC(CC(=O)N2CCN(CC(C)(C)CNC(C)=O)CC2)=C(C(=O)OC)C1c1c(Cl)cccc1Cl` (stereo not shown) [Example 16, Dimethyl 2-[2-[4-[3-(acetylamino)-2,2-dimethylpropyl]-1-piperazinyl]-2-oxoethyl]-4-(2,6-dichlorophenyl)-6-[2-(1,3-thiazol-2-yl)ethyl]-1,4-dihydro-3,5 pyridinedicarboxylate], the melting point lay within 104 to 107 °C.
Compound `COC(=O)C1=C(CCc2nccs2)NC(CC(=O)N2CCN(CC3(CN)CCCC3)CC2)=C(C(=O)OC)C1c1c(Cl)cccc1Cl` (stereo not shown) [Example 17, Dimethyl 2-[2-[4-[[1-(aminomethyl)cyclopentyl]methyl]-1-piperazinyl]-2-oxoethyl]-4-(2,6-dichlorophenyl)-6-[2-(1,3-thiazol-2-yl)ethyl]-1,4-dihydro-3,5-pyridinedicarboxylate] came in with a melting point of 161 to 164 °C.
`COC(=O)C1=C(CCc2nccs2)NC(CC(=O)N2CCN(CC(C)(C)CN)CC2)=C(C(=O)OC)C1c1c(Cl)cccc1Cl` (stereo not shown) [Example 18, Dimethyl 2-[2-[4-(3-amino-2,2-dimethylpropyl)-1-piperazinyl]-2-oxoethyl]-4-(2,6-dichlorophenyl)-6-[2-(1,3-thiazol-2-yl)ethyl]-1,4-dihydro-3,5-pyridinedicarboxylate] gave a melting point of 158 to 162 °C.
Under `CCNCC(C)(C)CN1CCN(C(=O)CC2=C(C(=O)OC)C(c3c(Cl)cccc3Cl)C(C(=O)OC)=C(CCc3nccs3)N2)CC1` (stereo not shown) [Example 19, Dimethyl 4-(2,6-dichlorophenyl)-2-[2-[4-[3-(ethylamino)-2,2-dimethylpropyl]-1-piperazinyl]-2-oxoethyl]-6-[2-(1,3-thiazol-2-yl)ethyl]-1,4-dihydro-3,5-pyridinedicarboxylate] stands 154 to 157 °C; under `COC(=O)C1=C(CCc2nccs2)NC(CC(=O)N2CCN(CCCN3CCC(C)C3=O)CC2)=C(C(=O)OC)C1c1c(Cl)cccc1Cl` (stereo not shown) [Example 30, Dimethyl 4-(2,6-dichlorophenyl)-2-[2-[4-[3-(3-methyl-2-oxo-1-pyrrolidinyl)propyl]-1-piperazinyl]-2-oxoethyl]-6-[2-(1,3-thiazol-2-yl)ethyl]-1,4-dihydro-3,5pyridinedicarboxylate], 175 to 178 °C (dec.).
Under `COC(=O)C1=C(CCc2nccs2)NC(CC(=O)N2CCC(C3(CNC(C)=O)CCCCC3)CC2)=C(C(=O)OC)C1c1c(Cl)cccc1Cl` (stereo not shown) [Example 44, Dimethyl 2-[2-[4-[1-[(acetylamino)methyl]cyclohexyl]-1-piperidinyl]-2-oxoethyl]-4-(2,6dichlorophenyl)-6-[2-(1,3-thiazol-2-yl)ethyl]-1,4dihydro-3,5-pyridinedicarboxylate] stands 114 to 116 °C (dec.).
